Source: PMC12028158, “Synthesis and In Vitro Evaluation of the Anticancer Effect of Novel Phosphonium Vindoline Derivatives” (International Journal of Molecular Sciences, 2025)

Assays:
non-tumor CHO cells = assay: CellTiter-Glo Luminescent Cell Viability Assay; assay type: cell-based, Chinese hamster; conditions: for IC50: Cricetulus griseus, 48 h treatment, read-out: IC50 (estimated)
Description: Conjugates 9b and 9e were selected based on their antitumor effects to be tested on non-tumor CHO cells in the CellTiter-Glo Luminescent Cell Viability Assay to investigate their potential selectivity for cancer cells. Following a 48 h treatment with the conjugates in the 0.10–10 µM concentration range, a concentration-dependent decrease in the luminescent signal was observed, indirectly representing the ATP production of living cells as an indicator of cell viability.
Conjugates 9b and 9e were dissolved in DMSO in 10 mM stock solutions and stored frozen until use. CHO cells were cultured in complete Dulbecco’s Modified Eagle’s Medium (DMEM, low glucose (1 g/L) supplemented with 10% fetal bovine serum, 1% Gibco GlutaMAX-I (100×) solution, 1% Gibco MEM non-essential amino acid solution (100×), and 0.1% penicillin–streptomycin mixture). The CellTiter-Glo Luminescent Cell Viability Assay (Promega Corporation, Madison, WI, USA) was performed as previously described. Cells were grown under standard cell culture conditions (37 °C, 5% CO2) and passaged at 70–80% confluency. According to the manufacturer’s protocol, CHO cells were seeded to opaque 96-well culture plates (5000 cells/100 µL complete DMEM/well) and the side rows and columns of the plate were filled with sterile phosphate-buffer saline to avoid artifacts. […] The luminescent signal was measured for each assay well with an EnSpire AlphaLisa microplate reader (Perkin Elmer, Inc., Waltham, MA, USA). […] Estimated IC50 values were calculated using non-linear regression by fitting a sigmoidal dose-response curve to the data points (log(inhibitor) vs. normalized response, variable slope, and least squares fit).
Statistical analysis (ANOVA) and estimation of IC50 values were performed in GraphPad Prism 8.0.1 (GraphPad, La Jolla, CA, USA). Estimated IC50 values were calculated using non-linear regression by fitting a sigmoidal dose-response curve to the data points (log(inhibitor) vs. normalized response, variable slope, least squares fit).

A2780 cells [1] = assay: Wound healing migration assay; assay type: cell-based, human; conditions: A2780, sub-inhibitory concentrations (0.5 or 1.0 µM), 24 and 48 h
Description: The antimigratory properties of compound 9g were investigated using the in vitro wound healing assay against the ovarian cancer cell line A2780.
The effect of compound 9g on the migration of A2780 cells was assessed using a wound-healing assay. A2780 cells were trypsinized and seeded into specialized wound assay chambers (ibidi GmbH, Martinsried, Germany) at a density of 80,000 cells/insert and the plate was incubated under standard conditions to allow proper attachment. After incubation, the inserts were carefully removed and the wells were washed twice with PBS to eliminate non-adherent cells and debris. The cells were subsequently treated with […] at 0.5 or 1.0 µM in fresh medium containing 2% FBS. The migration of cells toward the wound site was visualized using a phase-contrast inverted microscope (Nikon Instruments Europe, Amstelveen, The Netherlands) and images were captured with a CCD camera (QImaging MicroPublisher Color RTV5.0 Teledyne Photometrics, Tucson, AZ, USA). The percentage of cell migration was calculated at different time intervals (0, 24, and 48 h) by measuring the cell-free area in treated samples against untreated controls using ImageJ software 1.54d (National Institutes of Health, Bethesda, MD, USA). The experiments were conducted twice with at least three parallel samples.

A2780 cells [2] = assay: Cell cycle analysis (propidium iodide flow cytometry); assay type: cell-based, human
Description: Based on its promising IC50 and selectivity, compound 9g was selected for further investigations, including cell cycle analysis. Treatment with derivative 9g induced concentration- and time-dependent cell cycle disturbances in A2780 ovarian cancer cells, accompanied by apoptosis (Figure 3). […] After a 48 h exposure, the lower concentration maintained this pattern (G0/G1 elevation and S and G2/M reduction).
A2780 cells were seeded onto 12-well plates at densities of 200,000 cells per well and the plates were then incubated overnight under standard cell culture conditions. Then, the media were removed and the cells in each well were washed with phosphate-buffered saline (PBS) and treated with 1000 µL of fresh medium containing 1.5 or 3.0 µM of compound 9g for 24 or 48 h. After the incubation, the cells were washed with PBS and harvested using trypsinization. The cell suspensions were centrifuged at 1100 rpm for 5 min at room temperature. The cells were rewashed and fixed in 500 µL of cold 70% ethanol for 30 min. Following the fixation, cells were centrifuged at 1300 rpm for 5 min at 4 °C and the pellets were resuspended in 300 µL staining solution (containing 10 µg/mL propidium iodide, 0.1% Triton-X, 0.1% sodium citrate, and 10 µg/mL RNase-A in water). The samples were stored in the dark at room temperature for 30 min. The stained cells were then analyzed using a flow cytometer (CytoFLEX, Beckman Coulter, Brea, CA, USA), recorded by CytExpert Software 2.5.0.77 (Beckman Coulter), ensuring that at least 20,000 events per sample were evaluated. The percentages of cells in different phases of the cell cycle (subG1, G1, S, and G2/M) were determined using ModFit LT 3.3.11 software (Verity Software House, Topsham, ME, USA); the subG1 fraction indicated the apoptotic cell population, as referenced by Vermes et al.. […]

Structure (SMILES)	IC50 (non-tumor CHO cells) [nM]	decrease in viability (non-tumor CHO cells; 1.0 µM, 48 h) [%]	cell migration (A2780 cells [1])	S and G2/M phase populations (A2780 cells [2]; A2780, 1.5 μM and 3.0 μM, 24 h)	proportion of cells in the G0/G1 phase (A2780 cells [2]; A2780, 1.5 μM and 3.0 μM, 24 h)	subG1 cell population (A2780 cells [2]; A2780, particularly after the more prolonged exposure (48 h))
CC[C@]12C=CCN3CC[C@@]4(c5ccc(OC)cc5N(C)[C@H]4[C@@](O)(C(=O)OC)[C@@H]1OC(=O)CCC[P+](c1ccc(OC)cc1)(c1ccc(OC)cc1)c1ccc(OC)cc1)[C@@H]32 [9b]	2980					
CC[C@]12C=CCN3CC[C@@]4(c5ccc(OC)cc5N(C)[C@H]4[C@@](O)(C(=O)OC)[C@@H]1OC(=O)CCC[P+](c1cc(C)c(OC)c(C)c1)(c1cc(C)c(OC)c(C)c1)c1cc(C)c(OC)c(C)c1)[C@@H]32 [9e]	1360	26.4 ± 5.8				
CC[C@]12C=CCN3CC[C@@]4(c5ccc(OC)cc5N(C)[C@H]4[C@@](O)(C(=O)OC)[C@@H]1OC(=O)CCC[P+](c1ccccc1)(c1ccccc1)c1ccccn1)[C@@H]32 [9g]			concentration- and duration-dependent reduction in cell migration	decreasing	significantly increased	remarkable increase
